The text below walks through data of patent US20230099293A1, “OGA INHIBITOR COMPOUNDS” (priority 2019, published 2023).

Data set [1] concerns the target T1, recombinant human Meningioma Expressed Antigen 5 (MGEA5), also referred to as O-GlcNAcase (OGA) (Homo sapiens, UniProt O60502).
T1 construct: Full length OGA enzyme was purchased at OriGene (cat #TP322411); purchased OriGene TP322411
T1 sequence (O60502 1-916): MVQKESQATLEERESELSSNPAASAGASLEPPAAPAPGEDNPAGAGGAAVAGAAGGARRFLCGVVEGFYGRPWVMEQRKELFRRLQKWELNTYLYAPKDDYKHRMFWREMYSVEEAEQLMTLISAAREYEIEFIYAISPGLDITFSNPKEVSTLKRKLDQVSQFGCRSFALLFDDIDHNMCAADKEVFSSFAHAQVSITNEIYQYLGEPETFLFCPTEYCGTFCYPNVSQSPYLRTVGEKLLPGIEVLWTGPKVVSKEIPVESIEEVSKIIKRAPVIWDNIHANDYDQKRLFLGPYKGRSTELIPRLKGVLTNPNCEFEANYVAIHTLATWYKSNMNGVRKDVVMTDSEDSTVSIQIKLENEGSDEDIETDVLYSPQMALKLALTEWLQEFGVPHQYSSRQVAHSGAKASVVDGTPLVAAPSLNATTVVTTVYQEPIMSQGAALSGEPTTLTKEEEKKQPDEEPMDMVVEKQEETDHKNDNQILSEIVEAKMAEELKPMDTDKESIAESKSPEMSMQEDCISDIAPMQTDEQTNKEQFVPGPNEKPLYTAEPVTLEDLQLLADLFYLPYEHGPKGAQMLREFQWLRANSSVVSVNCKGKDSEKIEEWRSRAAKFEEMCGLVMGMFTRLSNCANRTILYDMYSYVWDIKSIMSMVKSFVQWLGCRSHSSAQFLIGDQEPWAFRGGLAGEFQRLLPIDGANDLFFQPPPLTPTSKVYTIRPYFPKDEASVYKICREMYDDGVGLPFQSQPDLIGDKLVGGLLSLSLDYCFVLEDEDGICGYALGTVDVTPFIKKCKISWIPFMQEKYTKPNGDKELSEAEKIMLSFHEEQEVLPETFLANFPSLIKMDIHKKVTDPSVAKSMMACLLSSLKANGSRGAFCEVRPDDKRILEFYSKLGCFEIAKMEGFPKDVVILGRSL
In words: OGA biochemical assay (inhibition of FM-GlcNAc hydrolysis, fluorescence). The note with it: for IC50: Enzymatic hOGA, pIC50, Table 5; for IC50 / Enzymatic hOGA; pIC50: full length OGA 2 nM, FM-GlcNAc 100 uM, 6 h at room temperature; for Emax: read-out: Enzymatic Emax (%); for Enzymatic hOGA; pIC50: Table 5. On the procedure:
The hydrolysis FM-GlcNAc (Marker Gene technologies, cat #M1485) results in the formation of β-D-N-glucosamineacetate and fluorescein. The fluorescence of the latter can be measured at excitation wavelength 485 nm and emission wavelength 538 nm. An increase in enzyme activity results in an increase in fluorescence signal. Full length OGA enzyme was purchased at OriGene (cat #TP322411). The enzyme was stored in 25 mM Tris.HCl, pH 7.3, 100 mM glycine, 10% glycerol at −20° C. […] The assay was performed in 200 mM Citrate/phosphate buffer supplemented with 0.005% Tween-20. 35.6 g Na2HIPO42H2O (Sigma, #C0759) were dissolved in 1 L water to obtain a 200 mM solution. […] The buffer to stop the reaction consists of a 500 mM Carbonate buffer, pH 11.0. […] OGA was used at a 2 nM concentration and FM-GlcNAc at a 100 uM final concentration. Dilutions were prepared in assay buffer.
Plates were pre-incubated for 60 min at room temperature and then 2 μl FM-GlcNAc substrate mix added. […] Plates were briefly centrifuged for 1 min at 1000 rpm and incubate at room temperature for 6 h. To stop the reaction 5 μl STOP buffer were added and plates centrifuge again 1 min at 1000 rpm. Fluorescence was quantified in the Thermo Scientific Fluoroskan Ascent or the PerkinElmer EnVision with excitation wavelength 485 nm and emission wavelength 538 nm.
For analysis a best-fit curve is fitted by a minimum sum of squares method. From this an IC50 value and Hill coefficient was obtained. High control (no inhibitor) and low control (saturating concentrations of standard inhibitor) were used to define the minimum and maximum values.

The target in data set [2] is T2, hOGA (Homo sapiens, UniProt O60502).
T2 construct: endogenous in cells; host or cells: HEK293 cells inducible for P301L mutant human Tau (isoform 2N4R)
T2 sequence (O60502 1-916): T1 sequence (O60502 1-916)
Put plainly: OGA cellular assay (ICC detection of O-GlcNAcylated proteins in HEK293 cells inducible for P301L mutant human Tau). Also on record: Emax: dose or concentration left out as unconfirmed. In kind it is cell-based. The following applies: for EC50: Cellular hOGA, pEC50, Table 5; for Emax: HEK293, read-out: Cellular Emax (%). As for the experimental part: HEK293 cells inducible for P301L mutant human Tau (isoform 2N4R) were established at Janssen. Thiamet-G was used for both plate validation (high control) and as reference compound (reference EC50 assay validation). OGA inhibition is evaluated through the immunocytochemical (ICC) detection of O-GlcNAcylated proteins by the use of a monoclonal antibody (CTD110.6; Cell Signaling, #9875) detecting O-GlcNAcylated residues as previously described (Dorfmueller et al. 2010 Chemistry & biology, 17:1250). Inhibition of OGA will result in an increase of O-GlcNAcylated protein levels resulting in an increased signal in the experiment. Cell nuclei are stained with Hoechst to give a cell culture quality control and a rough estimate of immediate compounds toxicity, if any. ICC pictures are imaged with a Perkin Elmer Opera Phenix plate microscope and quantified with the provided software Perkin Elmer Harmony 4.1.
Cells were propagated in DMEM high Glucose (Sigma, #D5796) following standard procedures. 2 days before the cell assay cells are split, counted and seeded in Poly-D-Lysine (PDL) coated 96-wells (Greiner, #655946) plate at a cell density of 12,000 cells per cm^2 (4,000 cells per well) in 100 μl of Assay Medium (Low Glucose medium is used to reduce basal levels of GlcNAcylation) (Park et al. 2014 The Journal of biological chemistry 289:13519). At the day of compound test medium from assay plates was removed and replenished with 90 μl of fresh Assay Medium. 10 μl of compounds at a 10 fold final concentration were added to the wells. Plates were centrifuged shortly before incubation in the cell incubator for 6 hours. DMSO concentration was set to 0.2%. Medium is discarded by applying vacuum. For staining of cells medium was removed and cells washed once with 100 μl D-PBS (Sigma, #D8537). From next step onwards unless other stated assay volume was always 50 μl and incubation was performed without agitation and at room temperature. Cells were fixed in 50 μl of a 4% paraformaldehyde (PFA, Alpha aesar, #043368) PBS solution for 15 minutes at room temperature. […] Before analysis samples were washed 2 times manually for 5 minutes in ICC base buffer.
Imaging is performed using Perkin Elmer Phenix Opera using a water 20× objective and recording 9 fields per well. Intensity readout at 488 nm is used as a measure of O-GlcNAcylation level of total proteins in wells. To assess potential toxicity of compounds nuclei were counted using the Hoechst staining. IC50-values are calculated using parametric non-linear regression model fitting. As a maximum inhibition Thiamet Gat a 200 uM concentration is present on each plate. In addition, a concentration response of Thiamet G is calculated on each plate.

[3] abbreviates: HEK293 P301L Tau cells, 6 hours incubation, O-GlcNAcylation readout.
Setting [4] is: Table 5, HEK293 P301L Tau cells, 6 hours incubation, O-GlcNAcylation readout.
[5] abbreviates: second table, averaged values over several runs, obtained after recalibration of the equipment.

Turning to `COc1cc(C)c(Nc2nccc3c2ncn3CC(=O)N(C)C)c(C)c1` [Compound 8], the melting point (in general, the temperature of the solid-liquid transition) came to 230 °C. For the same compound, in data set [1], the IC50 (as a rule, the concentration needed to halve the response being measured) was 5.5 nM and the maximum response (Emax) (as a rule, the greatest response seen or fitted, relative to the assay's reference) worked out at 97%. In addition, the response in data set [2] (setting [3]) was half-maximal at 26.9 nM (EC50). In addition, in data set [2], the Emax worked out at 98%.

Compound `CC(=O)n1nc(C)c(Nc2nccc3c2ncn3CC(=O)N(C)C)c1C` [Compound 37] came in with a melting point of 175.4 °C. In data set [1], the IC50 was over 10000 nM and the Emax stood at 2%. Further, the EC50 – broadly, the midpoint of the concentration-response curve – in data set [2] (setting [3]) is over 1000 nM. The Emax in data set [2] turned out to be 8%.

Compound `Cc1cc(C(F)(F)F)cc(C)c1Nc1nccc2c1ncn2-c1ncc(F)cn1` [Compound 69] displayed a melting point of 198.2 °C. Besides, in data set [1], the “Enzymatic hOGA; pIC50” value is listed as 6.14 and the Emax was determined as 80%. Also, the Emax in data set [2] worked out at 6%. In addition, the “Cellular hOGA; pEC50” value in data set [2] (setting [4]) was under 6. Also, the “Cellular hOGA; pEC50” value in data set [2] (setting [5]) was found to be 6.14.

The compound `Cc1nn(-c2cccc(F)c2)c(C)c1Nc1nccc2c1ncn2CC(=O)N(C)C` [Compound 34] yielded a melting point of 181.5 °C. In data set [1], the IC50 is 36.3 nM and the Emax was found to be 99%. The compound further showed an EC50 in data set [2] (setting [3]) of 562 nM. Moreover, in data set [2], the Emax was found to be 54%.

In turn, `COCCn1cnc2c(Nc3c(C)cc(C(F)(F)F)cc3C)nccc21` [Compound 74] showed a melting point of 161.5 °C. In addition, in data set [1], the “Enzymatic hOGA; pIC50” value worked out at 5.64 and the Emax was 83%. Further, the Emax in data set [2] was determined as 6%. Further, the “Cellular hOGA; pEC50” value in data set [2] (setting [4]) is under 6. The “Cellular hOGA; pEC50” value in data set [2] (setting [5]) is listed as under 6.

For the compound `CN(C)C(=O)Cn1cnc2c(Nc3c(Cl)cc(OC(F)(F)F)cc3Cl)nccc21` [Compound 7], the melting point came out at 201.5 °C. In addition, in data set [1], the IC50 is 6.92 nM and the Emax turned out to be 102%. The compound further showed a concentration for a half-maximal effect (EC50) in data set [2] (setting [3]) of 372 nM. Moreover, the Emax in data set [2] is 66%.

Compound `Cc1cc2c(ncn2CC(=O)N(C)C)c(Nc2c(C)cc(C(F)(F)F)cc2C)n1` [Compound 30] registered a melting point of 188.2 °C. In data set [1], the IC50 is 5890 nM and the Emax was 55%. This compound also had an EC50 in data set [2] (setting [3]) of over 1000 nM. Further, the Emax in data set [2] came to 12%.

For `Cc1cc(C(F)(F)F)cc(C)c1Nc1ncc(C)c2c1ncn2CC(=O)N(C)C` [Compound 6, 2-(4-((2,6-Dimethyl-4-(trifluoromethyl)phenyl)amino)-7-methyl-1H-imidazo[4,5-c]pyridin-1-yl)-N,N-dimethylacetamide], the melting point turned out to be 238.3 °C. In addition, in data set [1], the IC50 was 19.1 nM and the Emax was 99%. Further, in data set [2] (setting [3]), the EC50 was 288 nM. For the same compound, the Emax in data set [2] came out at 60%.

`Cc1cc(Cn2cnc3c(Nc4c(C)cc(C(F)(F)F)cc4C)nccc32)no1` [Compound 80] gave a melting point of 164.7 °C. Moreover, in data set [1], the IC50 was 8.91 nM and the Emax amounted to 104%. Also, the Emax in data set [2] stood at 94%.

`Cc1cc(C(F)(F)F)cc(C)c1Nc1nccc2c1ncn2CC(=O)N(C)C` [Compound 61, 2-(4-((2,6-Dimethyl-4-(trifluoromethyl)phenyl)amino)-1H-imidazo[4,5-c]pyridin-1-yl)-N,N-dimethylacetamide] showed a melting point of 207.65 °C. Moreover, in data set [1], the IC50 is 9.33 nM and the Emax was 98%. Besides, a half-maximal response in data set [2] (setting [3]) (EC50) required 107 nM. The Emax in data set [2] came to 87%.

For `CC(C)c1cc(C(F)(F)F)cc(F)c1Nc1nccc2c1ncn2CC(=O)N(C)C` [Compound 31], the melting point stood at 191.4 °C. Moreover, in data set [1], the IC50 was 87.1 nM and the maximum response (Emax) turned out to be 104%. Besides, the EC50 in data set [2] (setting [3]) was over 1000 nM. The Emax in data set [2] worked out at 36%.

Regarding `CCCCn1cnc2c(Nc3c(C)cc(F)cc3C)nccc21` [Compound 57], the melting point was 184.45 °C. Besides, in data set [1], the IC50 is 53.7 nM and the Emax amounted to 99%. This compound had an EC50 in data set [2] (setting [3]) of 513 nM. Moreover, the Emax in data set [2] came out at 62%.

Turning to `Cc1cc(Cl)cc(C)c1Nc1nccc2c1ncn2CC(=O)N(C)C` [Compound 11], the melting point turned out to be 209.8 °C. In data set [1], the IC50 was 10 nM and the Emax came out at 99%. Besides, the response in data set [2] (setting [3]) was half-maximal at 209 nM (EC50). The Emax in data set [2] was 62%.

Compound `Cc1cc(C(F)(F)F)cc(C)c1Nc1nccc2c1ncn2CC(=O)N1CCC1` [Compound 50] displayed a melting point of 176.4 °C. Besides, in data set [1], the IC50 is 126 nM and the Emax is 94%. In data set [2] (setting [3]), this compound gave an EC50 of 933 nM. Also, the Emax in data set [2] was found to be 48%.

In the case of `Cc1cc(C(F)(F)F)cc(C)c1Nc1nccc2c1ncn2CC(=O)N(C)C1CC1` [Compound 52], the melting point is 199.8 °C. In data set [1], the IC50 amounted to 8.13 nM and the Emax is 102%. In data set [2] (setting [3]), this compound had an EC50 of 138 nM. The Emax in data set [2] came out at 73%.

`Cc1nn(-c2ccccc2)c(C)c1Nc1nccc2c1ncn2CC(=O)N(C)C` [Compound 41] yielded a melting point of 126.3 °C. For the same compound, in data set [1], the IC50 is 28.2 nM and the Emax was 95%. In data set [2] (setting [3]), the EC50 was over 1000 nM. The Emax in data set [2] was 44%.
